Experimental findings from ChEMBL document CHEMBL4390652, “Design, biological evaluation and X-ray crystallography of nanomolar multifunctional ligands targeting simultaneously acetylcholinesterase and glycogen synthase kinase-3” (Eur J Med Chem, 2019) are described below.

Experiment [1] concerns the target Ribosomal protein S6 kinase alpha-4 (Homo sapiens) (UniProt O75676). Briefly: Binding affinity to wild-type human partial length C-terminal RPS6KA4 kinase domain 2 (M375 to T705 residues) expressed in mammalian expression system assessed as residual binding level at 10 uM by Kinomescan method relative to control.
The target in experiment [2] is Serine/threonine-protein kinase SIK3 (Homo sapiens) (UniProt Q9Y2K2). Briefly: Binding affinity to wild-type human partial length QSK (A90 to L395 residues) expressed in mammalian expression system assessed as residual binding level at 10 uM by Kinomescan method relative to control.
Experiment [3] addresses Interferon-induced, double-stranded RNA-activated protein kinase (Homo sapiens) (UniProt P19525). Briefly: Binding affinity to wild-type human partial length PRKR (F247 to C551 residues) expressed in bacterial expression system assessed as residual binding level at 10 uM by Kinomescan method relative to control.
Experiment [4] addresses Dual specificity mitogen-activated protein kinase kinase 4 (Homo sapiens) (UniProt P45985). Briefly: Binding affinity to wild-type human partial length MEK4 (S84 to D399 residues) expressed in mammalian expression system assessed as residual binding level at 10 uM by Kinomescan method relative to control.
Experiment [5] has as its system ALK tyrosine kinase receptor (Homo sapiens), Q9UM73 [C1156Y]. Briefly: Binding affinity to wild-type human partial length ALK C1156Y mutant (I1088 to E1409 residues) expressed in mammalian expression system assessed as residual binding level at 10 uM by Kinomescan method relative to control.
The target in experiment [6] is Serine/threonine-protein kinase PLK2 (Homo sapiens) (UniProt Q9NYY3). Briefly: Binding affinity to wild-type human partial length PLK2 (H58 to F354 residues) expressed in mammalian expression system assessed as residual binding level at 10 uM by Kinomescan method relative to control.
Experiment [7] addresses Serine/threonine-protein kinase pim-1 (Homo sapiens) (UniProt P11309). Put plainly: Binding affinity to wild-type human partial length PIM1 (A15 to K313 residues) expressed in bacterial expression system assessed as residual binding level at 10 uM by Kinomescan method relative to control.
Experiment [8] addresses Cyclin-dependent kinase-like 3 (Homo sapiens) (UniProt Q8IVW4). Put plainly: Binding affinity to wild-type human partial length CDKL3 (M1 to D327 residues) expressed in bacterial expression system assessed as residual binding level at 10 uM by Kinomescan method relative to control.
The target in experiment [9] is Vascular endothelial growth factor receptor 2 (Homo sapiens) (UniProt P35968). Briefly: Binding affinity to wild-type human partial length VEGFR2 (R787 to P1253 residues) expressed in mammalian expression system assessed as residual binding level at 10 uM by Kinomescan method relative to control.
The target of experiment [10] is Phosphatidylinositol 4-phosphate 3-kinase C2 domain-containing subunit beta (Homo sapiens) (UniProt O00750). Put plainly: Binding affinity to wild-type human partial length PIK3C2B (M1 to L1634 residues) expressed in mammalian expression system assessed as residual binding level at 10 uM by Kinomescan method relative to control.
Experiment [11] relates to Receptor-type tyrosine-protein kinase FLT3 (Homo sapiens), P36888 [N841I]. Briefly: Binding affinity to human partial length FLT3 N841I mutant (V592 to Y969 residues) expressed in bacterial expression system assessed as residual binding level at 10 uM by Kinomescan method relative to control.
In experiment [12] the target is Tyrosine-protein kinase receptor UFO (Homo sapiens) (UniProt P30530). Briefly: Binding affinity to wild-type human partial length AXL (R497 to Y821 residues) expressed in bacterial expression system assessed as residual binding level at 10 uM by Kinomescan method relative to control.
Experiment [13] addresses Casein kinase II subunit alpha' (Homo sapiens) (UniProt P19784). Put plainly: Binding affinity to wild-type human full length CSNK2A2 (M1 to R350 residues) expressed in mammalian expression system assessed as residual binding level at 10 uM by Kinomescan method relative to control.
For experiment [14], the target named is Serine/threonine-protein kinase D1 (Homo sapiens) (UniProt Q15139). Put plainly: Binding affinity to wild-type human partial length PRKD1 (G551 to E870 residues) expressed in bacterial expression system assessed as residual binding level at 10 uM by Kinomescan method relative to control.
Experiment [15] has as its target Serine/threonine-protein kinase D3 (Homo sapiens) (UniProt O94806). Put plainly: Binding affinity to wild-type human partial length PRKD3 (S543 to E863 residues) expressed in bacterial expression system assessed as residual binding level at 10 uM by Kinomescan method relative to control.
The target of experiment [16] is Serine/threonine-protein kinase Sgk2 (Homo sapiens) (UniProt Q9HBY8). Put plainly: Binding affinity to wild-type human partial length SGK2 (L54 to C427 residues) expressed in mammalian expression system assessed as residual binding level at 10 uM by Kinomescan method relative to control.
The target in experiment [17] is Cyclin-dependent kinase 15 (Homo sapiens) (UniProt Q96Q40). Put plainly: Binding affinity to wild-type human full length PFTAIRE2 (M1 to W384 residues) expressed in bacterial expression system assessed as residual binding level at 10 uM by Kinomescan method relative to control.
Experiment [18] addresses Phosphatidylinositol 4-phosphate 5-kinase type-1 alpha (Homo sapiens) (UniProt Q99755). Put plainly: Binding affinity to wild-type human full length PIP5K1A (M1 to H562 residues) expressed in bacterial expression system assessed as residual binding level at 10 uM by Kinomescan method relative to control.
Experiment [19] deals with Tyrosine-protein kinase Fes/Fps (Homo sapiens) (UniProt P07332). Briefly: Binding affinity to wild-type human partial length FES (I527 to R822 residues) expressed in bacterial expression system assessed as residual binding level at 10 uM by Kinomescan method relative to control.
The target of experiment [20] is Myosin-IIIb (Homo sapiens) (UniProt Q8WXR4). Briefly: Binding affinity to wild-type human partial length MYO3B (M1 to D357 residues) expressed in bacterial expression system assessed as residual binding level at 10 uM by Kinomescan method relative to control.
In experiment [21] the target is Phosphatidylinositol 4-kinase beta (Homo sapiens) (UniProt Q9UBF8). Put plainly: Binding affinity to wild-type human full length PIK4CB (M1 to M828 residues) expressed in mammalian expression system assessed as residual binding level at 10 uM by Kinomescan method relative to control.
For experiment [22], the target named is Mitogen-activated protein kinase kinase kinase 5 (Homo sapiens) (UniProt Q99683). Briefly: Binding affinity to wild-type human partial length ASK1 (E648 to S964 residues) expressed in bacterial expression system assessed as residual binding level at 10 uM by Kinomescan method relative to control.
In experiment [23] the target is Phosphatidylinositol 3-kinase catalytic subunit type 3 (Homo sapiens) (UniProt Q8NEB9). Briefly: Binding affinity to wild-type human partial length VPS34 (S282 to H879 residues) expressed in mammalian expression system assessed as residual binding level at 10 uM by Kinomescan method relative to control.
Experiment [24] has as its target Serine/threonine-protein kinase Nek4 (Homo sapiens) (UniProt P51957). Put plainly: Binding affinity to wild-type human full length NEK4 (M1 to F841 residues) expressed in mammalian expression system assessed as residual binding level at 10 uM by Kinomescan method relative to control.

In the case of `O=C(Nc1cc(-c2cn(CCNc3c4c(nc5ccccc35)CCCC4)nn2)ccn1)Nc1cccc2c1C1CCCCN1C2=O` (racemic), the Activity was determined as 69% in experiment [1]; 23% in experiment [2]; 45% in experiment [3]; 100% in experiment [4]; 100% in experiment [5]; 80% in experiment [6]. Moreover, the Activity worked out at 25% in [7]; 0% in experiment [8]; 9.1% in experiment [9]; 51% in [10]; 0% in experiment [11]; 5.5% in [12]. Also, the Activity turned out to be 5% in experiment [13]; 24% in experiment [14]; 12% in [15]; 10% in experiment [16]; 11% in [17]; 22% in experiment [18]. Besides, the Activity came out at 92% in experiment [19]; 100% in [20]; 28% in experiment [21]; 80% in [22]; 3.7% in experiment [23]; 98% in experiment [24].
